This is an account of results in patent publication US11464751B2, “Use of fluoroethylnormemantine for the prevention and treatment of anxiety” (REST THERAPEUTICS, priority 2017, dated 2022).

In the test the test system is naive rats (Wistar). The test can be described thus: Open-field test with light gradient. The class given is in vivo, rat. On the procedure:
Thus, to test state anxiety, several animal models are commonly used and have been validated by numerous studies: • open field test: This consists of forcibly exposing the animal (rat or mouse) to a new environment and observing its behavior. […] Locomotor activity and behavior are then assessed by recording the number of crossings of the grid lines, the frequency of retreats, the number of entries and the time spent in the central squares. This animal model is considered a good model of “normal” anxiety when adapting to a new environment. It has good predictability of human response to treatment (L. Prut, European Journal of Pharmacology 463 (2003) 3-33). The open-field test is also useful, when it is prolonged (behavioral recording time over 2 hours), as it allows monitoring the motor activity of the animals and thus their state of wakefulness, whereas measurements at short times give information on anxiety. • the light-dark box test: another animal model of anxiety is based on the aversive properties of an open-field space and on the comparison of exploratory activities in a lit compartment and in a dark compartment under the influence of anxiolytic substances (M Bourin, European Journal of Pharmacology 463 (2003) 55-65). This paradigm is based on rodents' innate aversion to bright places and on rodents' spontaneous exploratory behavior in response to stressful environments (new environment or light). The test device is divided into two compartments, one is small, dark and safe, the second is large, bright and stressful. This paradigm allows the prediction of anxiolytic or anxiogenic drug-like activities in mice. Passages between each compartment are a cue of exploration activity, while the time spent in each compartment reflects aversion. Anxiolytics, effective in humans, classic (benzodiazepines) as well as more recent anxiolytic compounds (serotonergic drugs or drugs acting on neuropeptide receptors) can be detected by this animal model which has the advantage of being simple and quick to use. • The open-field test with light gradient: the two models described above can be judiciously coupled in order to check the anxiolytic potential of a molecule, by eliminating the “burrow” effect induced by the presence of the dark compartment.
In the following examples, the effects of memantine, propranolol and fluoroethylnormemantine (FENM, the subject of the present invention) are studied in naive rats (Wistar) subjected to various tests related to depression or anxiety and then compared.
The test substances are administered to rats intraperitoneally in a volume of 5 ml/kg, 30 minutes before the behavioral tests are performed.
The injected solutions contain either of the molecules in the form of one of their salts, a hydrochloride (memantine·HCl and FENM·HCl) for the nitrogen derivatives and as such for propranolol, at the concentrations indicated below in a mixture of 95% (NaCl 0.9% ww in water)/5% ethanol. In each experiment, the dose per kilogram is referenced.
For each paradigm, and each solution tested, 12 rats are subjected to injection and behavioral testing. The control solution is a saline solution.
In this example the light-dark box test was modified by eliminating the compartmentalization of the box and using a high-intensity light gradient (600 lux). As it is based on rodents' innate aversion to light, the increase in time spent in the area closest to the light source is therefore considered to reflect a lower level of anxiety.
The animals are exposed to a 12-minute sequence, broken down into three parts, 4 minutes in darkness (ambient light of 5 lux), 4 minutes in the presence of the light gradient and 4 minutes again in darkness. Displacements are recorded in the same way as for the open-field test. The field of view is divided into 4 zones numbered from 1 to 4 according to the increasing distance from the light source.

Take `NC12CC3CC(C1)CC(CCF)(C3)C2`: the “Percentage of time spent in the area closest to the light source” value turned out to be 32% (5 mg/kg i.p., Dark 1 (Habituation)); 30% (5 mg/kg i.p., Dark 2 (Relief)); 22% (5 mg/kg i.p., Light 600 lux (Stress)); 29% (10 mg/kg i.p., Dark 1 (Habituation)); 34% (10 mg/kg i.p., Dark 2 (Relief)); 30% (10 mg/kg i.p., Light 600 lux (Stress)). Besides, the “Percentage of time spent in the area closest to the light source” value was found to be 39% (20 mg/kg i.p., Dark 1 (Habituation)); 29% (20 mg/kg i.p., Dark 2 (Relief)); 21% (20 mg/kg i.p., Light 600 lux (Stress)). Moreover, the “anxiety effect (avoidance of the most strongly illuminated area)” value (10 mg/kg dose) is “completely eliminated”.
